MIC90, selectivity ratio and IC50 data for four molecules are collected here from ChEMBL document CHEMBL2417537, “Synthesis and antifungal activity of terpenyl-1,4-naphthoquinone and 1,4-anthracenedione derivatives” (Eur J Med Chem, 2013).

≈ marks a conversion by molar mass, not a printed value. Some results are limits rather than exact numbers.

In the first series the test system is Aspergillus fumigatus. In words: Antifungal activity against Aspergillus fumigatus ATCC 204305 after 48 hrs. In kind it is functional. Conditions: ATCC 204305, 48 h.
Broadly, the MIC90 is the lowest concentration that inhibits either 90% of growth or 90% of the strains tested, depending on the study. Turning to `COc1ccc(NC2=C(Br)C(=O)c3cc(CCCC(C)C)ccc3C2=O)cc1`, the MIC90 is greater than 32 µg/mL.
The same measure, in the same setting: to `CCNC1=CC(=O)c2cc3c(cc2C1=O)C(C)(C)CCC3` belongs greater than 32 µg/mL; to `Cc1cc(C)c2c3c(oc2c1)C(=O)c1cc(CCCC(C)C)ccc1C3=O`, greater than 32 µg/mL.
Still for that read-out and setting: to `CC1(C)CCCc2cc3c(cc21)C(=O)C=CC3=O` belongs greater than 32 µg/mL.

Test system in the next series: not listed separately
In words: Selectivity index, ratio of IC50 for african green monkey Vero cells to IC50 for Trichophyton mentagrophytes ATCC 24198. The settings on record: read-out: Ratio IC50. Format: toxicity, cell-based.
Consider `CC1(C)CCCc2cc3c(cc21)C(=O)C=CC3=O`, for which the selectivity ratio stood at 6.6.

The test system of another series is Aspergillus terreus. In words: Antifungal activity against Aspergillus terreus CDC 317 after 48 hrs. In kind it is functional. The settings on record: CDC 317, 48 h.
`COc1ccc(NC2=C(Br)C(=O)c3cc(CCCC(C)C)ccc3C2=O)cc1` had an MIC90 greater than 32 µg/mL.
On the same count and under the same terms, in the case of `CCNC1=CC(=O)c2cc3c(cc2C1=O)C(C)(C)CCC3` it was greater than 32 µg/mL; in that of `Cc1cc(C)c2c3c(oc2c1)C(=O)c1cc(CCCC(C)C)ccc1C3=O`, greater than 32 µg/mL; in that of `CC1(C)CCCc2cc3c(cc21)C(=O)C=CC3=O`, greater than 32 µg/mL.

For another series, the system named is Candida albicans. The series can be described thus: Antifungal activity against Candida albicans ATCC 90028 after 24 hrs. In kind it is functional. Conditions: ATCC 90028, 24 h.
For the molecule `COc1ccc(NC2=C(Br)C(=O)c3cc(CCCC(C)C)ccc3C2=O)cc1`, the MIC90 is greater than 32 µg/mL.
On the same count and under the same terms, in the case of `CCNC1=CC(=O)c2cc3c(cc2C1=O)C(C)(C)CCC3` it was greater than 32 µg/mL.
Still for that read-out and setting: to `Cc1cc(C)c2c3c(oc2c1)C(=O)c1cc(CCCC(C)C)ccc1C3=O` belongs greater than 32 µg/mL; to `CC1(C)CCCc2cc3c(cc21)C(=O)C=CC3=O`, 22.6 µg/mL (≈ 94 µM).

For the next series, the system named is Candida parapsilosis. In words: Antifungal activity against Candida parapsilosis ATCC 22019 after 24 hrs. Format: functional. The settings on record: ATCC 22019, 24 h.
`COc1ccc(NC2=C(Br)C(=O)c3cc(CCCC(C)C)ccc3C2=O)cc1` displayed an MIC90 greater than 32 µg/mL.
Same read-out and setting: to `CCNC1=CC(=O)c2cc3c(cc2C1=O)C(C)(C)CCC3` belongs greater than 32 µg/mL.
On the same count and under the same terms, to `Cc1cc(C)c2c3c(oc2c1)C(=O)c1cc(CCCC(C)C)ccc1C3=O` belongs greater than 32 µg/mL; to `CC1(C)CCCc2cc3c(cc21)C(=O)C=CC3=O`, 4.8 µg/mL (≈ 20 µM).

The next series has as its system Trichophyton rubrum. The series can be described thus: Antifungal activity against Trichophyton rubrum ATCC 28188 after 6 days. Conditions: ATCC 28188, 144 h. Format: functional.
`COc1ccc(NC2=C(Br)C(=O)c3cc(CCCC(C)C)ccc3C2=O)cc1`: the MIC90 is greater than 32 µg/mL.
The same measure, in the same setting: to `CCNC1=CC(=O)c2cc3c(cc2C1=O)C(C)(C)CCC3` belongs 3.2 µg/mL (≈ 11.3 µM); to `Cc1cc(C)c2c3c(oc2c1)C(=O)c1cc(CCCC(C)C)ccc1C3=O`, greater than 32 µg/mL; to `CC1(C)CCCc2cc3c(cc21)C(=O)C=CC3=O`, 4 µg/mL (≈ 16.6 µM).

For the next series, the system named is Candida tropicalis. In words: Antifungal activity against Candida tropicalis ATCC 200956 after 24 hrs. In kind it is functional. Conditions: ATCC 200956, 24 h.
Consider `COc1ccc(NC2=C(Br)C(=O)c3cc(CCCC(C)C)ccc3C2=O)cc1`, for which the MIC90 is greater than 32 µg/mL.
For the molecule `CCNC1=CC(=O)c2cc3c(cc2C1=O)C(C)(C)CCC3`, the MIC90 is greater than 32 µg/mL.
Same read-out and setting: to `Cc1cc(C)c2c3c(oc2c1)C(=O)c1cc(CCCC(C)C)ccc1C3=O` belongs greater than 32 µg/mL; to `CC1(C)CCCc2cc3c(cc21)C(=O)C=CC3=O`, 5 µg/mL (≈ 20.8 µM).

The test system of the next series is Pichia kudriavzevii. The series can be described thus: Antifungal activity against Candida krusei ATCC 6258 after 24 hrs. In kind it is functional. Conditions: ATCC 6258, 24 h.
Molecule `COc1ccc(NC2=C(Br)C(=O)c3cc(CCCC(C)C)ccc3C2=O)cc1` registered an MIC90 greater than 32 µg/mL.
Same read-out and setting: to `CCNC1=CC(=O)c2cc3c(cc2C1=O)C(C)(C)CCC3` belongs greater than 32 µg/mL.
Molecule `Cc1cc(C)c2c3c(oc2c1)C(=O)c1cc(CCCC(C)C)ccc1C3=O` registered an MIC90 greater than 32 µg/mL.
`CC1(C)CCCc2cc3c(cc21)C(=O)C=CC3=O`: the MIC90 came to 4 µg/mL (≈ 16.6 µM).

Another series has as its system Vero. The series can be described thus: Cytotoxicity against african green monkey Vero cells after 48 hrs by MTT assay. Format: cell-based. The settings on record: Chlorocebus sabaeus. In general terms: Tetrazolium dyes change colour on reduction, which living cells bring about.
A word on the IC50: it is the concentration needed to halve the response being measured. In turn, `COc1ccc(NC2=C(Br)C(=O)c3cc(CCCC(C)C)ccc3C2=O)cc1` had an IC50 of 58.5 µg/mL (≈ 132 µM).
The same measure, in the same setting: in the case of `CCNC1=CC(=O)c2cc3c(cc2C1=O)C(C)(C)CCC3` it was 35.6 µg/mL (≈ 126 µM); in that of `Cc1cc(C)c2c3c(oc2c1)C(=O)c1cc(CCCC(C)C)ccc1C3=O`, 35.4 µg/mL (≈ 98.2 µM).
On the same count and under the same terms, in the case of `CC1(C)CCCc2cc3c(cc21)C(=O)C=CC3=O` it was 8.6 µg/mL (≈ 35.8 µM).

The subject of a further series is Clavispora lusitaniae. In words: Antifungal activity against Candida lusitaniae ATCC 200951 after 24 hrs. Format: functional. Conditions: ATCC 200951, 24 h.
For the molecule `COc1ccc(NC2=C(Br)C(=O)c3cc(CCCC(C)C)ccc3C2=O)cc1`, the MIC90 was greater than 32 µg/mL.
The same measure, in the same setting: in the case of `CCNC1=CC(=O)c2cc3c(cc2C1=O)C(C)(C)CCC3` it was greater than 32 µg/mL.
Same read-out and setting: in the case of `Cc1cc(C)c2c3c(oc2c1)C(=O)c1cc(CCCC(C)C)ccc1C3=O` it was greater than 32 µg/mL; in that of `CC1(C)CCCc2cc3c(cc21)C(=O)C=CC3=O`, 5 µg/mL (≈ 20.8 µM).

Another series concerns Candida tropicalis. In words: Antifungal activity against Candida tropicalis CECT 11901 after 24 hrs. The settings on record: CECT 11901, 24 h.
Molecule `COc1ccc(NC2=C(Br)C(=O)c3cc(CCCC(C)C)ccc3C2=O)cc1` registered an MIC90 greater than 32 µg/mL.
Same read-out and setting: in the case of `CCNC1=CC(=O)c2cc3c(cc2C1=O)C(C)(C)CCC3` it was greater than 32 µg/mL.
The molecule `Cc1cc(C)c2c3c(oc2c1)C(=O)c1cc(CCCC(C)C)ccc1C3=O` came in with an MIC90 greater than 32 µg/mL.
On the same count and under the same terms, in the case of `CC1(C)CCCc2cc3c(cc21)C(=O)C=CC3=O` it was 12.7 µg/mL (≈ 52.9 µM).

The test system of another series is Aspergillus niger. In words: Antifungal activity against Aspergillus niger ATCC 16404 after 48 hrs. In kind it is functional. Conditions: ATCC 16404, 48 h.
As for `COc1ccc(NC2=C(Br)C(=O)c3cc(CCCC(C)C)ccc3C2=O)cc1`, the MIC90 was greater than 32 µg/mL.
Same read-out and setting: to `CCNC1=CC(=O)c2cc3c(cc2C1=O)C(C)(C)CCC3` belongs greater than 32 µg/mL.
Still for that read-out and setting: in the case of `Cc1cc(C)c2c3c(oc2c1)C(=O)c1cc(CCCC(C)C)ccc1C3=O` it was greater than 32 µg/mL; in that of `CC1(C)CCCc2cc3c(cc21)C(=O)C=CC3=O`, greater than 32 µg/mL.

Test system in a further series: not listed separately
The series can be described thus: Selectivity index, ratio of IC50 for african green monkey Vero cells to IC50 for Trichophyton rubrum ATCC 28188. The settings on record: read-out: Ratio IC50. Format: toxicity, cell-based.
On to `CCNC1=CC(=O)c2cc3c(cc2C1=O)C(C)(C)CCC3`, for which the selectivity ratio turned out to be 11.1.

A further series relates to Candida albicans. In words: Antifungal activity against Candida albicans ATCC 10231 after 24 hrs. In kind it is functional. Conditions: ATCC 10231, 24 h.
`COc1ccc(NC2=C(Br)C(=O)c3cc(CCCC(C)C)ccc3C2=O)cc1` gave an MIC90 greater than 32 µg/mL.
Still for that read-out and setting: to `CCNC1=CC(=O)c2cc3c(cc2C1=O)C(C)(C)CCC3` belongs greater than 32 µg/mL.
Still for that read-out and setting: to `Cc1cc(C)c2c3c(oc2c1)C(=O)c1cc(CCCC(C)C)ccc1C3=O` belongs greater than 32 µg/mL; to `CC1(C)CCCc2cc3c(cc21)C(=O)C=CC3=O`, 18 µg/mL (≈ 74.9 µM).

The next series concerns Fusarium oxysporum. The series can be described thus: Antifungal activity against Fusarium oxysporum ATCC 48112 after 48 hrs. The settings on record: ATCC 48112, 48 h. In kind it is functional.
Regarding `COc1ccc(NC2=C(Br)C(=O)c3cc(CCCC(C)C)ccc3C2=O)cc1`, the MIC90 is greater than 32 µg/mL.
The same measure, in the same setting: to `CCNC1=CC(=O)c2cc3c(cc2C1=O)C(C)(C)CCC3` belongs greater than 32 µg/mL.
On the same count and under the same terms, in the case of `Cc1cc(C)c2c3c(oc2c1)C(=O)c1cc(CCCC(C)C)ccc1C3=O` it was greater than 32 µg/mL; in that of `CC1(C)CCCc2cc3c(cc21)C(=O)C=CC3=O`, greater than 32 µg/mL.

A further series concerns Trichophyton mentagrophytes. The series can be described thus: Antifungal activity against Trichophyton mentagrophytes ATCC 24198 after 6 days. In kind it is functional. Conditions: ATCC 24198, 144 h.
Molecule `COc1ccc(NC2=C(Br)C(=O)c3cc(CCCC(C)C)ccc3C2=O)cc1` registered an MIC90 greater than 32 µg/mL.
Same read-out and setting: in the case of `CCNC1=CC(=O)c2cc3c(cc2C1=O)C(C)(C)CCC3` it was 5 µg/mL (≈ 17.6 µM); in that of `Cc1cc(C)c2c3c(oc2c1)C(=O)c1cc(CCCC(C)C)ccc1C3=O`, greater than 32 µg/mL; in that of `CC1(C)CCCc2cc3c(cc21)C(=O)C=CC3=O`, 1.3 µg/mL (≈ 5.41 µM).

Test system in the next series: not listed separately
In words: Selectivity index, ratio of IC50 for african green monkey Vero cells to IC50 for Candida krusei ATCC 6258. Format: toxicity, cell-based. Conditions: read-out: Ratio IC50.
As for `CC1(C)CCCc2cc3c(cc21)C(=O)C=CC3=O`, the selectivity ratio is 2.2.

A further series concerns Aspergillus flavus. In words: Antifungal activity against Aspergillus flavus ATCC 204304 after 48 hrs. Format: functional. The settings on record: ATCC 204304, 48 h.
Regarding `COc1ccc(NC2=C(Br)C(=O)c3cc(CCCC(C)C)ccc3C2=O)cc1`, the MIC90 was greater than 32 µg/mL.
The same measure, in the same setting: to `CCNC1=CC(=O)c2cc3c(cc2C1=O)C(C)(C)CCC3` belongs greater than 32 µg/mL; to `Cc1cc(C)c2c3c(oc2c1)C(=O)c1cc(CCCC(C)C)ccc1C3=O`, greater than 32 µg/mL; to `CC1(C)CCCc2cc3c(cc21)C(=O)C=CC3=O`, greater than 32 µg/mL.
